Results published in ChEMBL document CHEMBL1145288, “5-substituted, 6-substituted, and unsubstituted 3-heteroaromatic pyridine analogues of nicotine as selective inhibitors of cytochrome P-450 2A6” (J Med Chem, 2005).

How the values were obtained:
Cytochrome P450 2A6 [1] = target: T1, Cytochrome P450 2A6 (Homo sapiens, UniProt P11509); experiment: Effect on coumarin 7-hydroxylation by human Cytochrome P-450 2A6
T1 sequence (P11509 whole entry): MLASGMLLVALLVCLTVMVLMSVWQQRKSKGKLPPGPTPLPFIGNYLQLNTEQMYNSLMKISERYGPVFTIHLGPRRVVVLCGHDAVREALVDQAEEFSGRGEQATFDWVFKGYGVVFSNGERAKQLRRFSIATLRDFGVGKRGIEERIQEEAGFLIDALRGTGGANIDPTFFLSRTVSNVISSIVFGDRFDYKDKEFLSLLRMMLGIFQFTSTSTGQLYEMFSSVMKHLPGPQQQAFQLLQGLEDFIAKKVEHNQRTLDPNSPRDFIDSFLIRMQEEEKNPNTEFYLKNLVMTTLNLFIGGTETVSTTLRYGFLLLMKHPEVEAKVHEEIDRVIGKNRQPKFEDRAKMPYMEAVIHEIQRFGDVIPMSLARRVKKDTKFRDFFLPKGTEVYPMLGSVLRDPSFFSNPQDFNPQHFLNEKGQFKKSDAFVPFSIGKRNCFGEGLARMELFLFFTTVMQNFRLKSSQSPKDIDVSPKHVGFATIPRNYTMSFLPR

CYP2D6 versus CYP2A6 = experiment: Ratio of inhibition of human cytochrome P-450 2D6 to 2A6 was determined; Expressed as IC50(CYP2D6)/IC50(CYP2A6)
Cytochrome P450 2D6 = Cytochrome P450 2D6 (Homo sapiens, UniProt P10635); experiment: Inhibitory concentration value against human cytochrome P-450 2D6
Cytochrome P450 2E1 = Cytochrome P450 2E1 (Homo sapiens, UniProt P05181); experiment: Inhibitory concentration value against human cytochrome P-450 2E1
Cytochrome P450 2B6 = target: T2, Cytochrome P450 2B6 (Homo sapiens, UniProt P20813); experiment: Inhibitory concentration value against human cytochrome P-450 2B6
T2 sequence (P20813 whole entry): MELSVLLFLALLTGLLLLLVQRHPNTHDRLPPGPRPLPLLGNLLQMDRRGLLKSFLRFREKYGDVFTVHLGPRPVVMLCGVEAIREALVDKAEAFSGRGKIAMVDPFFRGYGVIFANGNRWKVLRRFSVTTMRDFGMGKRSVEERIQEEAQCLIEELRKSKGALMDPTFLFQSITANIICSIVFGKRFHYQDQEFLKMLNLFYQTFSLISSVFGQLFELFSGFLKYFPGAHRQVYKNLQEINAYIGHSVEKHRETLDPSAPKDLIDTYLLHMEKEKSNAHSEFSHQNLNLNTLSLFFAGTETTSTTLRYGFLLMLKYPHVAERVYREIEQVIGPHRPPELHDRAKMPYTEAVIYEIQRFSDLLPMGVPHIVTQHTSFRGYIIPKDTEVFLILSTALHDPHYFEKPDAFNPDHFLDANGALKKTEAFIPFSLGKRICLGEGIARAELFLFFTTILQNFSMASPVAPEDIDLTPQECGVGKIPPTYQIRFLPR

Cytochrome P450 2C19 = Cytochrome P450 2C19 (Homo sapiens, UniProt P33261); experiment: Inhibitory concentration value against human cytochrome P-450 2C19
CYP3A4 versus CYP2A6 = experiment: Ratio of inhibition of human cytochrome P-450 3A4 to 2A6 was determined; Expressed as IC50(CYP3A4)/IC50(CYP2A6)
Cytochrome P450 2C9 = Cytochrome P450 2C9 (Homo sapiens, UniProt P11712); experiment: Inhibitory concentration against human cytochrome P-450 2C9
Cytochrome P450 2A6 [2] = target: T1, Cytochrome P450 2A6; experiment: Inhibitory concentration value against human cytochrome P-450 2A6
Cytochrome P450 3A4 = Cytochrome P450 3A4 (Homo sapiens, UniProt P08684); experiment: Inhibitory concentration value against human cytochrome P-450 3A4
CYP2C9 versus CYP2A6 = experiment: Ratio of inhibition of human cytochrome P-450 2C9 to 2A6 was determined; Expressed as IC50(CYP2C9)/IC50(CYP2A6)
CYP2C19 versus CYP2A6 = experiment: Ratio of inhibition of human cytochrome P-450 2C19 to 2A6 was determined; Expressed as IC50(CYP2C19)/IC50(CYP2A6)
CYP2B6 versus CYP2A6 = experiment: Ratio of inhibition of human cytochrome P-450 2B6 to 2A6 was determined; Expressed as IC50(CYP2B6)/IC50(CYP2A6)
CYP2E1 versus CYP2A6 = experiment: Ratio of inhibition of human cytochrome P-450 2E1 to 2A6 was determined; Expressed as IC50(CYP2E1)/IC50(CYP2A6)

Chain of Cytochrome P450 2C19 (P33261 whole entry): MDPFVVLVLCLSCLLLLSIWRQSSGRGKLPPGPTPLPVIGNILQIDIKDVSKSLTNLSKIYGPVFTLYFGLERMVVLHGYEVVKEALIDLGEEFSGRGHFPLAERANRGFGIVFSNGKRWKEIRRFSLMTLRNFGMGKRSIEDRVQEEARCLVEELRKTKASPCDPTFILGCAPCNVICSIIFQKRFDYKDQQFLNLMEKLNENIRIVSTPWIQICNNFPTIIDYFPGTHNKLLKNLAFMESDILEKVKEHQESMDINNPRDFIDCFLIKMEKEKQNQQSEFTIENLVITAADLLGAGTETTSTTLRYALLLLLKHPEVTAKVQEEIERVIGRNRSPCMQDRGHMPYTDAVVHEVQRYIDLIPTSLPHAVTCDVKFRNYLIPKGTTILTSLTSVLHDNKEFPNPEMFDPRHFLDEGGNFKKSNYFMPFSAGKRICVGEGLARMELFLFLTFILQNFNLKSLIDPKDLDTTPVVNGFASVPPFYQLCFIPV
Chain of Cytochrome P450 2D6 (P10635 whole entry): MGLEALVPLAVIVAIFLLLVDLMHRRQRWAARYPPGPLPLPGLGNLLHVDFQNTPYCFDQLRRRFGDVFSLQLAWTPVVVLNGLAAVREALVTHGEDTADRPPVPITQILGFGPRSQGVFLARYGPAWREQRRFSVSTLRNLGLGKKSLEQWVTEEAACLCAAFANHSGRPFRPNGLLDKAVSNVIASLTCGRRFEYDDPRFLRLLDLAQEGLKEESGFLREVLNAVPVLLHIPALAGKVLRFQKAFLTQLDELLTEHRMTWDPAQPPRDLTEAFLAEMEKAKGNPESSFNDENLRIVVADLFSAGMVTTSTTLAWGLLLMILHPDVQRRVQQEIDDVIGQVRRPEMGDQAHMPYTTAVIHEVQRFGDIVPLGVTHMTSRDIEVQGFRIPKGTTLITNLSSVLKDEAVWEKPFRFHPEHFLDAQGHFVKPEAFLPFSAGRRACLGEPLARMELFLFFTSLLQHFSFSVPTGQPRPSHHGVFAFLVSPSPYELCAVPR
Chain of Cytochrome P450 2C9 (P11712 whole entry): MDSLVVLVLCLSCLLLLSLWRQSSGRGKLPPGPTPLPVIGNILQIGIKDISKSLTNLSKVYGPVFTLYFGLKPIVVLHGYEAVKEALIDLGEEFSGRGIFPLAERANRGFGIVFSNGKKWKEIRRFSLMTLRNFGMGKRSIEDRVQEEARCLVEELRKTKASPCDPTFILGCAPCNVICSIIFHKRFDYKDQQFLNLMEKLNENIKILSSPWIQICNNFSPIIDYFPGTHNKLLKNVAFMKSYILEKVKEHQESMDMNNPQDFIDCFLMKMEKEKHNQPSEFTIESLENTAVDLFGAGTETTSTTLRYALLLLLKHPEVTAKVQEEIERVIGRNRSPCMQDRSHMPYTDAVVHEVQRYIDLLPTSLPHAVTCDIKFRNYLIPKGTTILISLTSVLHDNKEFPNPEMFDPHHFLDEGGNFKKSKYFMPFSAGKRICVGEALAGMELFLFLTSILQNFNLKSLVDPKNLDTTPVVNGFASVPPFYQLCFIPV
Chain of Cytochrome P450 3A4 (P08684 whole entry): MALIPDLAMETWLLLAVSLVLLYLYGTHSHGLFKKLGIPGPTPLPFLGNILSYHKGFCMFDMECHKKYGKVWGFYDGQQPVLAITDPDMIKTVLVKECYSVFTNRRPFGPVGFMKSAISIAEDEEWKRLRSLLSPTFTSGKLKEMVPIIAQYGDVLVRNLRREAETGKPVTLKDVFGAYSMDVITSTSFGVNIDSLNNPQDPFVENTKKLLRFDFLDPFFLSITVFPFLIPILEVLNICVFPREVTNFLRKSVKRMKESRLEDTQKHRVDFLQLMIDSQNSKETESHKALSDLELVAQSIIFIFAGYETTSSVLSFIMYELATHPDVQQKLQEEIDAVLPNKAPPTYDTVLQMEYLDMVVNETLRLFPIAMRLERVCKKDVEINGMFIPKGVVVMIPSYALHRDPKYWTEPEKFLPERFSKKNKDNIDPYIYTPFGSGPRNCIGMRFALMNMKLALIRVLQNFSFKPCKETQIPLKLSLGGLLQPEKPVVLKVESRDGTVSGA
Chain of Cytochrome P450 2E1 (P05181 whole entry): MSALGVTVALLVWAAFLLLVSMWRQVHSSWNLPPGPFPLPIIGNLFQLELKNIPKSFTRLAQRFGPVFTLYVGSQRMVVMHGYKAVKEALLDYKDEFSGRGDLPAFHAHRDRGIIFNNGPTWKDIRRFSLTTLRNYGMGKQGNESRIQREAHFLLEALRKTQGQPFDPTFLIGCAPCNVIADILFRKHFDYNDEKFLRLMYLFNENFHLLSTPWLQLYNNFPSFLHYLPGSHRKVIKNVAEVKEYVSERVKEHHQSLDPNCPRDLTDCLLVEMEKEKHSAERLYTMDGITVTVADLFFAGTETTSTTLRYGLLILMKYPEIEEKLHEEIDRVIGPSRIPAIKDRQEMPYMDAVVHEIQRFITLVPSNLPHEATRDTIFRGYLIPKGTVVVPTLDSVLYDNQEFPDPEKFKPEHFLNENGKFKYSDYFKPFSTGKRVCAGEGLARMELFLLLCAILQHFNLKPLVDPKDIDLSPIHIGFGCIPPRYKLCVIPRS

Row | SMILES | Ki (Cytochrome P450 2A6 [1]) [µM] | IC50 (Cytochrome P450 2B6) [µM] | IC50 (Cytochrome P450 2C19) [µM] | IC50 (Cytochrome P450 2C9) [µM] | IC50 (Cytochrome P450 2D6) [µM] | IC50 (Cytochrome P450 2E1) [µM] | further results
1 | CNCC#Cc1cccnc1 | 0.89 |  |  |  |  |  | 
2 | Clc1ccc(-c2cccnc2)cn1 | 6.3 |  |  |  |  |  | 
3 | NCc1ccc(-c2cccnc2)o1 |  |  |  |  |  |  | selectivity ratio (CYP2D6 versus CYP2A6): 4.1
4 | Cc1ccsc1-c1cncc(Br)c1 | 1.5 |  |  |  |  |  | 
5 | O/N=C\c1ccc(-c2cccnc2)o1 | 13.7 | 128 | 279 | 398 | > 400 | > 400 | selectivity ratio (CYP2D6 versus CYP2A6): > 95; selectivity ratio (CYP3A4 versus CYP2A6): > 95; IC50 (Cytochrome P450 2A6 [2]): 4.2 µM; IC50 (Cytochrome P450 3A4): > 400 µM; selectivity ratio (CYP2C9 versus CYP2A6): 94; selectivity ratio (CYP2C19 versus CYP2A6): 66
6 | Brc1cncc(-c2ccsc2)c1 | 4.5 |  |  |  |  |  | 
7 | O/N=C/c1ccc(-c2cccnc2)o1 | 0.71 | 372 | 118 | 86.2 | > 400 | > 400 | IC50 (Cytochrome P450 3A4): > 400 µM; selectivity ratio (CYP2C9 versus CYP2A6): 1; selectivity ratio (CYP2C19 versus CYP2A6): 1.4
8 | N=Cc1ccc(-c2cccnc2)s1.N=Cc1ccc(-c2cccnc2)s1.NCc1ccc(-c2cccnc2)s1 |  | 256 |  |  | 197 | 77.5 | IC50 (Cytochrome P450 2A6 [2]): 3.7 µM; IC50 (Cytochrome P450 3A4): 77.5 µM
9 | c1cncc(-c2ccc(CNCc3ccc(-c4cccnc4)s3)s2)c1 |  |  |  |  |  |  | IC50 (Cytochrome P450 3A4): > 400 µM
10 | Fc1ccc(-c2ccsc2)cn1 | 0.97 | 72.1 | 182 | > 400 | 199 | 7.2 | selectivity ratio (CYP2B6 versus CYP2A6): 12; selectivity ratio (CYP2D6 versus CYP2A6): 34; selectivity ratio (CYP3A4 versus CYP2A6): 20; IC50 (Cytochrome P450 2A6 [2]): 5.8 µM; IC50 (Cytochrome P450 3A4): 114 µM; selectivity ratio (CYP2C9 versus CYP2A6): > 69; selectivity ratio (CYP2E1 versus CYP2A6): 1.2; selectivity ratio (CYP2C19 versus CYP2A6): 31
11 | Cc1cccnc1-c1cccnc1 | 43.7 |  |  |  |  |  | 
12 | c1cncc(-n2cnnn2)c1 | ≥ 67 |  |  |  |  |  | 
13 | C[n+]1c[nH]cc1-c1cccnc1 | 0.13 | 146 | 122 | 79.5 | 217 | 4.1 | selectivity ratio (CYP2B6 versus CYP2A6): 195; selectivity ratio (CYP2D6 versus CYP2A6): 289; selectivity ratio (CYP3A4 versus CYP2A6): 349; IC50 (Cytochrome P450 2A6 [2]): 0.75 µM; IC50 (Cytochrome P450 3A4): 262 µM; selectivity ratio (CYP2C9 versus CYP2A6): 106; selectivity ratio (CYP2E1 versus CYP2A6): 5; selectivity ratio (CYP2C19 versus CYP2A6): 163
14 | O/N=C/c1ccc(-c2cccnc2)o1.O/N=C\c1ccc(-c2cccnc2)o1 |  |  |  |  | > 400 |  | 
15 | O=[N+]([O-])c1ccc(-c2cccnc2)s1 | 19.7 |  |  |  |  |  | 
16 | c1cncc(-c2cncnc2)c1 | 27.4 |  |  |  |  |  | 
17 | c1cncc(-c2cccnc2)c1 |  |  | > 300 | > 300 | > 300 | > 300 | 
18 | COc1ccc(-c2sccc2C)cn1 | ≥ 67 |  |  |  |  |  | 
19 | Cc1nc(-c2cccnc2)c[nH]1 | 6.2 |  |  |  |  |  | 
20 | Cn1cnc(-c2cccnc2)c1 | 0.13 | 146 | 122 | 79.5 | 217 | 4.1 | selectivity ratio (CYP2D6 versus CYP2A6): 289
21 | c1cncc(-c2ccsc2)c1 | 0.22 | 59.1 | 111 | 96.3 | 248 | > 400 | selectivity ratio (CYP2B6 versus CYP2A6): 42; selectivity ratio (CYP2D6 versus CYP2A6): 177; selectivity ratio (CYP3A4 versus CYP2A6): 400; IC50 (Cytochrome P450 2A6 [2]): 1.4 µM; IC50 (Cytochrome P450 3A4): 56.9 µM; selectivity ratio (CYP2C9 versus CYP2A6): 69; selectivity ratio (CYP2E1 versus CYP2A6): > 286; selectivity ratio (CYP2C19 versus CYP2A6): 81
22 | CC(=O)c1ccc(-c2cccnc2)s1 | 1.4 | 217 | 62.7 | 98.2 | 387 | > 400 | selectivity ratio (CYP2B6 versus CYP2A6): 25; selectivity ratio (CYP2D6 versus CYP2A6): 45; selectivity ratio (CYP3A4 versus CYP2A6): 3.1; selectivity ratio (CYP2C9 versus CYP2A6): 11; selectivity ratio (CYP2E1 versus CYP2A6): > 46; selectivity ratio (CYP2C19 versus CYP2A6): 7
23 | Cc1cccc(-c2cccnc2)n1 | 9.8 |  |  |  |  |  | 
24 | c1cncc(-c2nccs2)c1 | 3.2 |  |  |  |  |  | 
25 | CN1CCC[C@H]1c1cccnc1 [NICOTINE] | 4.4 |  |  |  |  |  | 
26 | c1ccc(-c2cccnc2)nc1 [[2,3'']Bipyridinyl] | 7.7 |  |  |  |  |  | 

The next lines start with results.

Row | Ki (Cytochrome P450 2A6 [1]) [µM] | IC50 (Cytochrome P450 2B6) [µM] | IC50 (Cytochrome P450 2C19) [µM] | IC50 (Cytochrome P450 2C9) [µM] | SMILES | IC50 (Cytochrome P450 2D6) [µM] | IC50 (Cytochrome P450 2E1) [µM] | further results
27 | 0.24 | 214 | 37.2 | 223 | O/N=C/c1ccc(-c2cccnc2)s1 | 191 | 4.2 | selectivity ratio (CYP2B6 versus CYP2A6): 153; selectivity ratio (CYP2D6 versus CYP2A6): 136; selectivity ratio (CYP3A4 versus CYP2A6): 9.3; IC50 (Cytochrome P450 2A6 [2]): 1.4 µM; selectivity ratio (CYP2C9 versus CYP2A6): 159; selectivity ratio (CYP2E1 versus CYP2A6): 3; selectivity ratio (CYP2C19 versus CYP2A6): 27
28 | ≥ 67 |  |  |  | O=Cc1ccc(-c2cccnc2)o1 |  |  | 
29 | 0.17 | > 300 | > 300 | > 300 | Cc1cn(-c2cccnc2)cn1 | 297 | 57.9 | IC50 (Cytochrome P450 2A6 [2]): 1 µM
30 | 1.4 |  |  |  | NCc1ccc(-c2cccnc2)cc1 |  |  | 
31 | 0.59 | 6.8 | 3.2 | 2.1 | CNc1ccc(-c2cccnc2)s1 | 14.4 | 31.1 | selectivity ratio (CYP2B6 versus CYP2A6): 1.9; selectivity ratio (CYP2D6 versus CYP2A6): 4.1; selectivity ratio (CYP3A4 versus CYP2A6): 2; IC50 (Cytochrome P450 2A6 [2]): 3.5 µM; IC50 (Cytochrome P450 3A4): 6.3 µM; selectivity ratio (CYP2C9 versus CYP2A6): 0.6; selectivity ratio (CYP2E1 versus CYP2A6): 8.9; selectivity ratio (CYP2C19 versus CYP2A6): 0.9
32 | 2.7 |  |  |  | Cc1ccc(-c2cccnc2)nc1 |  |  | 
33 |  | 70.8 | 178 | 99.2 | c1cncc(-c2cccs2)c1 | > 400 | 4.1 | 
34 | 0.21 |  |  |  | Cc1ccsc1-c1ccc(F)nc1 |  |  | 
35 | 6.6 |  |  |  | COc1ccc(-c2cscc2C)cn1 |  |  | 
36 | 5.1 |  |  |  | Cc1ccnc(-c2cccnc2)c1 |  |  | 
37 | 0.52 | 83.1 | 46.4 | 75.2 | CCn1cnc(-c2cccnc2)c1 | 344 | 80 | selectivity ratio (CYP2B6 versus CYP2A6): 26; selectivity ratio (CYP2D6 versus CYP2A6): 111; selectivity ratio (CYP3A4 versus CYP2A6): 26; IC50 (Cytochrome P450 3A4): 79.2 µM; selectivity ratio (CYP2C9 versus CYP2A6): 24; selectivity ratio (CYP2E1 versus CYP2A6): 26; selectivity ratio (CYP2C19 versus CYP2A6): 15
38 | 0.17 |  |  |  | Cc1cncc(-c2cscc2C)c1 |  |  | 
39 |  |  |  | > 400 | Cc1cscc1-c1ccc(F)nc1 |  |  | 
